Earlier results in patent US20140161820A1, “Short-Term Surrogate Test for Investigative Drugs” (priority 2012, published 2014).

Experiments:
platelets = details: in vivo
[1] = target: T1, cholesteryl ester transfer protein (CETP) (Homo sapiens, UniProt P11597); details: phase III, treatment group receiving a combination of atorvastatin (Lipitor) and torcetrapib
T1 construct: host or cells: human trial subjects (endogenous plasma CETP)
T1 sequence (P11597 18-493): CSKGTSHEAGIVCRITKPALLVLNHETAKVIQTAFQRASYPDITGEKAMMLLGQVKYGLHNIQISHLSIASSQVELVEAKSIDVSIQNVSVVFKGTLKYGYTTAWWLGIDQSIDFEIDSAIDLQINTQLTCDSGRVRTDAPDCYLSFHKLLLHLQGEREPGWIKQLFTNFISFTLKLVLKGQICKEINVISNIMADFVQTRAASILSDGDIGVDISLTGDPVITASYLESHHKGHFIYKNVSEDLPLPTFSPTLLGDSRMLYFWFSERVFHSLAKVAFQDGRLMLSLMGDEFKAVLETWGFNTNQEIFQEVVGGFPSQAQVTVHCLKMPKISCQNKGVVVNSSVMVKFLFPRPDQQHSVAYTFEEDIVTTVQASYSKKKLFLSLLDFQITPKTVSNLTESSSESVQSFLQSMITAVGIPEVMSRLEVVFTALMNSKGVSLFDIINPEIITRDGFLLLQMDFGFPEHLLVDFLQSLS

| Compound | time by which anti-platelet effects are measurable (platelets) | all-cause mortality [1] |
| --- | --- | --- |
| CC(=O)Oc1ccccc1C(=O)O [aspirin] | ≤ 60 min |  |
| CCOC(=O)N1c2ccc(C(F)(F)F)cc2[C@@H](N(Cc2cc(C(F)(F)F)cc(C(F)(F)F)c2)C(=O)OC)C[C@H]1CC [torcetrapib] |  | excessive all-cause mortality |
